In paper PMC7279487, “Dual Target Ligands with 4-tert-Butylphenoxy Scaffold as Histamine H3 Receptor Antagonists and Monoamine Oxidase B Inhibitors” (International Journal of Molecular Sciences, 2020):

What was measured:
hMAO B = molecular target: T1, hMAO B (Homo sapiens, UniProt P27338); test: hMAO B inhibition, fluorometric Amplex Red MAO assay; format: biochemical
T1 construct: purchased Sigma Aldrich M7441
T1 sequence (P27338 1-520): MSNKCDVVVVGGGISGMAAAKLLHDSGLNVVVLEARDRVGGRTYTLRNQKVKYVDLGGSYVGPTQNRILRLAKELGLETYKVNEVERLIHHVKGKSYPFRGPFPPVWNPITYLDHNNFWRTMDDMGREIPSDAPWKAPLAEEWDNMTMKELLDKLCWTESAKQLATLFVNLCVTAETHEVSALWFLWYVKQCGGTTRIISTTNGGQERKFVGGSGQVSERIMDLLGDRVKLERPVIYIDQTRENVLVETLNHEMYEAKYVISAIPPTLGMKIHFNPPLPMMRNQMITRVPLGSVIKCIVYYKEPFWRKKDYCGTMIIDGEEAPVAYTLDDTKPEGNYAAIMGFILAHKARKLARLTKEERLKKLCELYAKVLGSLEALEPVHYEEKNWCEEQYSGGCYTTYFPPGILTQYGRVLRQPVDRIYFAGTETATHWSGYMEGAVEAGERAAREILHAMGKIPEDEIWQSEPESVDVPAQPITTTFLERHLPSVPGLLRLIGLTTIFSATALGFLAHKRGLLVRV

[1] = tested on: haloperidol-induced catalepsy; test: haloperidol-induced catalepsy, crossed-leg position test; format: in vivo, Wistar rats; conditions: for Times of Observation of Catalepsy (s), 0 min / Times of Observation of Catalepsy (s), 3 min / Times of Observation of Catalepsy (s), 6 min: mean ± SEM (n = 6)
Experimental: Haloperidol (dopamine D2 antagonist)-induced catalepsy in rodents is a popular model for screening of antiparkinsonian activity of compounds [21]. Caused symptoms in animals are similar to the inability of PD patients to initiate movements. […] The reversal of catalepsy was tested for 6 min (3 times in 3 min intervals) after 1 h of haloperidol administration. As the reference compound was used MSX-3, the adenosine A2A receptor antagonist with confirmed ability to reverse catalepsy mediated by D1 and D2 receptor antagonists.
The experiments were carried out on male rats Wistar (180–220 g). Animals were housed in plastic cages in room at a constant temperature of 20 ± 2 °C with natural light–dark cycles. The animals had free access to standard pellet diet and water and were used after a minimum of 3 days of acclimatization to the housing conditions. Control and experimental groups consisted of 6 animals each. All experimental procedures were performed according to the European Union Directive of 22 September 2010 (2010/63/EU) and Polish legislation concerning animal care and use and was approved by the Local Ethics Committee for Experiments on Animals in Kraków, Poland (Resolution No. 70/2014, approval date: 20 May 2014). The examined compound was administered as the suspension in 0.5% methylcellulose in constant volume of 10 mL/kg.
Antiparkinsonian activity in catalepsy tests was performed as described in [28]. Haloperidol was administered s.c. at a dose of 0.63 mg/kg, which in 100% of control animals caused catalepsy. Tested compounds were administered i.p. at the doses 50 and 25 mg/kg body weight, 5 min after haloperidol injection. After 60 min from the injection of haloperidol, to assess the occurrence of catalepsy, the animals were placed in a forced position and the time they remained in this position was measured. Two tests were performed to determine the antiparkinsonian activity: crossed leg position test and bar test. In the first test, the animals were put on the hind paws behind the front (forced position); in the second, the animals were supported on a wooden block (the front paws were placed on a block suspended 10 cm above the ground). Then, the time that the animals remain is measured in a forced position (time was measured to a maximum of 60 s). Observation was carried out 3 times in 3-min intervals. The shortening of the time of catalepsy to the control group was adopted for the antiparkinsonian activity.

[2] = concentration used in kinetic studies

SMILES: CC(C)(C)c1ccc(OCCCN2CCCCC2)cc1 [DL76, 1-(3-(4-tert-butylphenoxy)propyl)piperidine]
- IC20 (hMAO B; [2]): 7 nM
- IC80 (hMAO B; [2]): 164 nM
- IC50 (hMAO B; mean ± SEM of 2-5 independent experiments, p-tyramine 200 μM): 48 ± 15 nM
- duration of catalepsy (versus control 19.25) ([1]; 25 mg/kg body weight): 8.75
- reduction of the duration of catalepsy compared to the control group ([1]; 25 mg/kg body weight, not statistically significant): 54.5%
- Times of Observation of Catalepsy (s), 0 min ([1]; 25 mg/kg): 0.66 ± 0.68 s
- Times of Observation of Catalepsy (s), 3 min ([1]; 25 mg/kg): 10.6 ± 6.1 s
- Times of Observation of Catalepsy (s), 6 min ([1]; 25 mg/kg): 15.0 ± 6.7 s
- duration of catalepsy (versus control 19.25) ([1]; 50 mg/kg body weight): 0.053
- reduction of the duration of catalepsy compared to the control group ([1]; 50 mg/kg body weight, statistically significant): 99.7%
- Times of Observation of Catalepsy (s), 0 min ([1]; 50 mg/kg): 0 ± 0 s
- Times of Observation of Catalepsy (s), 3 min ([1]; 50 mg/kg): 0 ± 0 s
- Times of Observation of Catalepsy (s), 6 min ([1]; 50 mg/kg): 0.16 ± 0.4 s
